Reference: patent publication US10405547B2, “Substituted cyclic amides as herbicides” (FMC Corporation, priority 2015, dated 2019)

Columns and labels:
Type in all cases: in vivo
[1] = system: barnyardgrass (Echinochloa crus-galli); assay: Test A postemergence, barnyardgrass; conditions: visual injury, 0 to 100 scale (0 no effect, 100 complete control), approximately 10 days
Summary of the method: (§1)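 Ratings use a 0–100 scale, where 0 means no effect and 100 means complete control, and come from visual comparison with untreated plants roughly 10 days after treatment. Compounds were applied in a surfactant-containing, non-phytotoxic solvent, either to soil after seeding or to foliage of small seedlings.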

[2] = system: blackgrass (Alopecurus myosuroides); assay: Test A postemergence, blackgrass; conditions: visual injury, 0 to 100 scale (0 no effect, 100 complete control), approximately 10 days
Summary of the method: as §1

rice (Oryza sativa) = assay: Test B flooded paddy test, rice; conditions: applied to paddy water, visual rating after 13 to 15 days, scale 0 (no effect) to 100 (complete control)
Summary of the method: (§2)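 Test compounds are applied straight into paddy water held 3 cm above the soil surface, with that flood maintained for the whole test. After 13 to 15 days in the greenhouse, each species is scored visually relative to controls.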

[3] = system: wheat (Triticum aestivum); assay: Test A postemergence, wheat; conditions: visual injury, 0 to 100 scale (0 no effect, 100 complete control), approximately 10 days
Summary of the method: as §1

[4] = system: barnyardgrass (Echinochloa crus-galli); assay: Test B flooded paddy test, barnyardgrass; conditions: applied to paddy water, visual rating after 13 to 15 days, scale 0 (no effect) to 100 (complete control)
Summary of the method: as §2

[5] = system: ryegrass, Italian (Lolium multiflorum); assay: Test A postemergence, Italian ryegrass; conditions: visual injury, 0 to 100 scale (0 no effect, 100 complete control), approximately 10 days
Summary of the method: as §1

[6] = system: ducksalad (Heteranthera limosa); assay: Test B flooded paddy test, ducksalad; conditions: applied to paddy water, visual rating after 13 to 15 days, scale 0 (no effect) to 100 (complete control)
Summary of the method: as §2

[7] = system: foxtail, giant (Setaria faberii); assay: Test A preemergence, giant foxtail; conditions: 0 to 100 scale (0 no effect, 100 complete control)
Summary of the method: as §1

[8] = system: galium (catchweed bedstraw, Galium aparine); assay: Test A postemergence, galium; conditions: visual injury, 0 to 100 scale (0 no effect, 100 complete control), approximately 10 days
Summary of the method: as §1

[9] = system: ryegrass, Italian (Lolium multiflorum); assay: Test A preemergence, Italian ryegrass; conditions: 0 to 100 scale (0 no effect, 100 complete control)
Summary of the method: as §1

[10] = system: foxtail, giant (Setaria faberii); assay: Test A postemergence, giant foxtail; conditions: visual injury, 0 to 100 scale (0 no effect, 100 complete control), approximately 10 days
Summary of the method: as §1

[11] = system: ragweed (common ragweed, Ambrosia elatior); assay: Test A preemergence, ragweed; conditions: 0 to 100 scale (0 no effect, 100 complete control)
Summary of the method: as §1

[12] = system: barnyardgrass (Echinochloa crus-galli); assay: Test A preemergence, barnyardgrass; conditions: 0 to 100 scale (0 no effect, 100 complete control)
Summary of the method: as §1

[13] = system: pigweed (Amaranthus retroflexus); assay: Test A preemergence, pigweed; conditions: 0 to 100 scale (0 no effect, 100 complete control)
Summary of the method: as §1

[14] = system: sedge, umbrella (small-flower umbrella sedge, Cyperus difformis); assay: Test B flooded paddy test, umbrella sedge; conditions: applied to paddy water, visual rating after 13 to 15 days, scale 0 (no effect) to 100 (complete control)
Summary of the method: as §2

kochia (Kochia scoparia) [15] = assay: Test A postemergence, kochia; conditions: visual injury, 0 to 100 scale (0 no effect, 100 complete control), approximately 10 days
Summary of the method: as §1

corn (Zea mays) = assay: Test A postemergence, corn; conditions: visual injury, 0 to 100 scale (0 no effect, 100 complete control), approximately 10 days
Summary of the method: as §1

[16] = system: ragweed (common ragweed, Ambrosia elatior); assay: Test A postemergence, ragweed; conditions: visual injury, 0 to 100 scale (0 no effect, 100 complete control), approximately 10 days
Summary of the method: as §1

kochia (Kochia scoparia) [17] = assay: Test A preemergence, kochia; conditions: 0 to 100 scale (0 no effect, 100 complete control)
Summary of the method: as §1

[18] = system: pigweed (Amaranthus retroflexus); assay: Test A postemergence, pigweed; conditions: visual injury, 0 to 100 scale (0 no effect, 100 complete control), approximately 10 days
Summary of the method: as §1

| Structure (SMILES) | Plant response rating, Barnyardgrass ([1]; 125 g ai/ha) | Plant response rating, Barnyardgrass ([1]; 500 g ai/ha) | Plant response rating, Blackgrass ([2]; 125 g ai/ha) | Plant response rating, Blackgrass ([2]; 500 g ai/ha) | Plant response rating, Wheat ([3]; 125 g ai/ha) | Plant response rating, Wheat ([3]; 500 g ai/ha) | Plant response rating, Ryegrass, Italian ([5]; 125 g ai/ha) | Plant response rating, Ryegrass, Italian ([5]; 500 g ai/ha) | Plant response rating, Foxtail, Giant ([7]; 125 g ai/ha) | Plant response rating, Foxtail, Giant ([7]; 500 g ai/ha) | Plant response rating, Galium ([8]; 125 g ai/ha) | Plant response rating, Galium ([8]; 500 g ai/ha) | Plant response rating, Ryegrass, Italian ([9]; 125 g ai/ha) | Plant response rating, Ryegrass, Italian ([9]; 500 g ai/ha) | Plant response rating, Foxtail, Giant ([10]; 125 g ai/ha) | Plant response rating, Foxtail, Giant ([10]; 500 g ai/ha) | Plant response rating, Ragweed ([11]; 125 g ai/ha) | Plant response rating, Ragweed ([11]; 500 g ai/ha) | Plant response rating, Barnyardgrass ([12]; 125 g ai/ha) | Plant response rating, Barnyardgrass ([12]; 500 g ai/ha) | other results |
| --- | --- | --- | --- | --- | --- | --- | --- | --- | --- | --- | --- | --- | --- | --- | --- | --- | --- | --- | --- | --- | --- |
| O=C1NCC(c2cccc(OCc3ccccc3)c2)C1C(=O)Nc1ccc(F)c(F)c1F (stereo not drawn) [Compound 66] | 0 | 0 | 0 | 0 | 0 | 0 | 0 | 0 | 0 | 0 | 0 | 0 | 0 | 0 | 0 | 0 | 0 | 0 | 0 | 0 | Plant response rating, Rice (Flood) (rice (Oryza sativa); 500 g ai/ha): 0; Plant response rating, Barnyardgrass (Flood) ([4]; 500 g ai/ha): 0; Plant response rating, Ducksalad (Flood) ([6]; 500 g ai/ha): 0; Plant response rating, Pigweed ([13]; 125 g ai/ha): 0; Plant response rating, Pigweed ([13]; 500 g ai/ha): 0; Plant response rating, Sedge, Umbrella (Flood) ([14]; 500 g ai/ha): 0; Plant response rating, Kochia (kochia (Kochia scoparia) [15]; 125 g ai/ha): 0; Plant response rating, Kochia (kochia (Kochia scoparia) [15]; 500 g ai/ha): 0; Plant response rating, Corn (corn (Zea mays); 125 g ai/ha): 0; Plant response rating, Corn (corn (Zea mays); 500 g ai/ha): 0; Plant response rating, Ragweed ([16]; 125 g ai/ha): 0; Plant response rating, Ragweed ([16]; 500 g ai/ha): 0; Plant response rating, Kochia (kochia (Kochia scoparia) [17]; 125 g ai/ha): 0; Plant response rating, Kochia (kochia (Kochia scoparia) [17]; 500 g ai/ha): 0; Plant response rating, Pigweed ([18]; 125 g ai/ha): 0; Plant response rating, Pigweed ([18]; 500 g ai/ha): 0 |
| O=C1NCC(c2cccc(Oc3ncc(F)cn3)c2)C1C(=O)Nc1ccccc1F (single isomer, unassigned) [Compound 39] | 70 | 100 | 0 | 40 | 0 | 60 | 0 | 20 | 90 | 100 | 0 | 30 | 0 | 60 | 70 | 80 | 0 | 50 | 70 | 90 | Plant response rating, Rice (Flood) (rice (Oryza sativa); 250 g ai/ha): 0; Plant response rating, Barnyardgrass (Flood) ([4]; 250 g ai/ha): 0; Plant response rating, Ducksalad (Flood) ([6]; 250 g ai/ha): 75; Plant response rating, Pigweed ([13]; 125 g ai/ha): 0; Plant response rating, Pigweed ([13]; 500 g ai/ha): 0; Plant response rating, Sedge, Umbrella (Flood) ([14]; 250 g ai/ha): 0; Plant response rating, Kochia (kochia (Kochia scoparia) [15]; 125 g ai/ha): 0; Plant response rating, Kochia (kochia (Kochia scoparia) [15]; 500 g ai/ha): 0; Plant response rating, Corn (corn (Zea mays); 125 g ai/ha): 30; Plant response rating, Corn (corn (Zea mays); 500 g ai/ha): 70; Plant response rating, Ragweed ([16]; 125 g ai/ha): 0; Plant response rating, Ragweed ([16]; 500 g ai/ha): 30; Plant response rating, Kochia (kochia (Kochia scoparia) [17]; 125 g ai/ha): 30; Plant response rating, Kochia (kochia (Kochia scoparia) [17]; 500 g ai/ha): 50; Plant response rating, Pigweed ([18]; 125 g ai/ha): 0; Plant response rating, Pigweed ([18]; 500 g ai/ha): 20 |
| CN1CC(c2cccc(Oc3ncc(F)cn3)c2)C(C(=O)Nc2ccccc2F)C1=O (single isomer, unassigned) [Compound 36] | 90 | 90 | 20 | 50 | 0 | 60 | 0 | 50 | 90 | 90 | 40 | 70 | 0 | 90 | 80 | 80 | 0 | 50 | 90 | 90 | Plant response rating, Rice (Flood) (rice (Oryza sativa); 250 g ai/ha): 30; Plant response rating, Barnyardgrass (Flood) ([4]; 250 g ai/ha): 60; Plant response rating, Ducksalad (Flood) ([6]; 250 g ai/ha): 0; Plant response rating, Pigweed ([13]; 125 g ai/ha): 0; Plant response rating, Pigweed ([13]; 500 g ai/ha): 40; Plant response rating, Sedge, Umbrella (Flood) ([14]; 250 g ai/ha): 0; Plant response rating, Kochia (kochia (Kochia scoparia) [15]; 125 g ai/ha): 0; Plant response rating, Kochia (kochia (Kochia scoparia) [15]; 500 g ai/ha): 50; Plant response rating, Corn (corn (Zea mays); 125 g ai/ha): 40; Plant response rating, Corn (corn (Zea mays); 500 g ai/ha): 90; Plant response rating, Ragweed ([16]; 125 g ai/ha): 0; Plant response rating, Ragweed ([16]; 500 g ai/ha): 40; Plant response rating, Kochia (kochia (Kochia scoparia) [17]; 125 g ai/ha): 0; Plant response rating, Kochia (kochia (Kochia scoparia) [17]; 500 g ai/ha): 40; Plant response rating, Pigweed ([18]; 125 g ai/ha): 30; Plant response rating, Pigweed ([18]; 500 g ai/ha): 50 |
